12 compounds from ChEMBL document CHEMBL1138225, “Synthesis and structure-activity relationships of 3,8-diazabicyclo[4.2.0]octane ligands, potent nicotinic acetylcholine receptor agonists” (J Med Chem, 2006) can be followed below.

The structures appear in SMILES notation. Activity calls are given as the source filed them. The rule behind the calls is not given here.

Assay [1] concerns the target T1, Neuronal acetylcholine receptor; alpha4/beta2 (Homo sapiens, UniProt P17787+P43681). The assay is described as follows: Maximal agonist activity on human alpha-4-beta-2 ACHR expressed in HEK293 cells assessed as change in intracellular calcium concentration by FLIPR relative to nicotine. The class given is functional, cell-based.
In assay [2] the test system is Rattus norvegicus. The assay is described as follows: Activity in rat formalin model measured as reduction in flinches at 6.2 umol/kg, ip. The class given is functional. On the set-up: scale not given: the % may be the effect or the level left.
The target of assay [3] is T2, Neuronal acetylcholine receptor; alpha3/beta4 (Homo sapiens, UniProt P30926+P32297). Put plainly: Agonist activity at human alpha-3-beta-4 ACHR expressed in HEK293 cells assessed as change in intracellular calcium concentration by FLIPR. The class given is functional, cell-based.
In assay [4] the target is T1, Neuronal acetylcholine receptor; alpha4/beta2. The assay is described as follows: Agonist activity at human alpha4beta2 ACHR expressed in HEK293 cells assessed as change in intracellular calcium concentration by FLIPR. The class given is functional, cell-based.
For assay [5], the target named is T2, Neuronal acetylcholine receptor; alpha3/beta4. The assay is described as follows: Maximal agonist activity at human alpha-3-beta-4 ACHR expressed in HEK293 cells assessed as change in intracellular calcium concentration by FLIPR relative to nicotine. The format is functional, cell-based.
The target in assay [6] is Neuronal acetylcholine receptor; alpha4/beta2 (Rattus norvegicus, UniProt P09483+P12390). The assay is described as follows: Displacement of [3H]cytisine from alpha-4-beta-2 ACHR in rat brain homogenate. The class given is tissue-based.
In assay [7] the test system is Rattus norvegicus. The assay is described as follows: Activity in rat formalin model measured as reduction in flinches at 19 umol/kg, ip. The class given is functional. On the set-up: scale not given: the % may be the effect or the level left.
Assay [8] relates to Rattus norvegicus. Put plainly: Induction of behavioral side effects in rat formalin model upto 19 umol/kg, […]. The class given is functional, organism-based.
The species entered for the next assay is Homo sapiens. Put plainly: Selectivity for human alpha4beta2 ACHR over alpha-3-beta-4 ACHR. The format is functional.
Assay [9] concerns Rattus norvegicus. The assay is described as follows: Activity in rat formalin model measured as reduction in flinches at 0.19 umol/kg, ip. Details: scale not given: the % may be the effect or the level left. The class given is functional.
The species named for assay [10] is Rattus norvegicus. The assay is described as follows: Activity in rat formalin model measured as reduction in flinches. The format is functional, organism-based.

T1 sequence (P17787 whole entry): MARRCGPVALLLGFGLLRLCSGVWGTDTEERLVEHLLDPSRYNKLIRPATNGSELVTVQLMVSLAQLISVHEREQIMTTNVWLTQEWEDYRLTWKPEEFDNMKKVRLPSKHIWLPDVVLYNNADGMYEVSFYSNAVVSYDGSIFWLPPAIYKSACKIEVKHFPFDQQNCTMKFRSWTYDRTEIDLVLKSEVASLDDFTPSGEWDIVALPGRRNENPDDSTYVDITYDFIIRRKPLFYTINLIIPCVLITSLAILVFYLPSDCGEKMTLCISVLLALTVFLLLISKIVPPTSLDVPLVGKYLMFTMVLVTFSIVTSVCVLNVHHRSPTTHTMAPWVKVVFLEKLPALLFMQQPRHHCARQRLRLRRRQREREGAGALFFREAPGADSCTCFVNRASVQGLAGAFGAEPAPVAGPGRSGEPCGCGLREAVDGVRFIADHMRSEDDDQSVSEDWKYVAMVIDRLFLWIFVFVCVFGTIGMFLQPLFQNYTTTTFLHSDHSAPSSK
T1 sequence (P43681 whole entry): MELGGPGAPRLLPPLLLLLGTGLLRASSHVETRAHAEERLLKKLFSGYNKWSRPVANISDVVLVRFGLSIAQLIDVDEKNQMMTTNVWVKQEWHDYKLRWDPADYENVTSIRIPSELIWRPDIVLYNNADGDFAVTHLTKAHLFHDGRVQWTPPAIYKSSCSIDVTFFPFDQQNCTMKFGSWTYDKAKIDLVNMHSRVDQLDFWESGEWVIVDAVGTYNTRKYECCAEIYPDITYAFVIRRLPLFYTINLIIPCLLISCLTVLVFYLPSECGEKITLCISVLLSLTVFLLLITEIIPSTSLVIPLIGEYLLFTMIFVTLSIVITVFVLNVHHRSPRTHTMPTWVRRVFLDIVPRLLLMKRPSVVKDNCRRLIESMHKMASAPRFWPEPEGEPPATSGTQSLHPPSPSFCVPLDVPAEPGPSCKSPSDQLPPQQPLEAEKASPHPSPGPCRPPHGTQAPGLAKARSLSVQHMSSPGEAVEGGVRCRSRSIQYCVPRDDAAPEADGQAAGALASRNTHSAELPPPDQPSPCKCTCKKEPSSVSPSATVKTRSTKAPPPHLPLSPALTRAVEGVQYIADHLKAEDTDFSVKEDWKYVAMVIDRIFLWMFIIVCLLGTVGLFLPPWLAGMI
Chain of Neuronal acetylcholine receptor; alpha4/beta2 (Rattus norvegicus, UniProt P09483+P12390) (P09483 whole entry): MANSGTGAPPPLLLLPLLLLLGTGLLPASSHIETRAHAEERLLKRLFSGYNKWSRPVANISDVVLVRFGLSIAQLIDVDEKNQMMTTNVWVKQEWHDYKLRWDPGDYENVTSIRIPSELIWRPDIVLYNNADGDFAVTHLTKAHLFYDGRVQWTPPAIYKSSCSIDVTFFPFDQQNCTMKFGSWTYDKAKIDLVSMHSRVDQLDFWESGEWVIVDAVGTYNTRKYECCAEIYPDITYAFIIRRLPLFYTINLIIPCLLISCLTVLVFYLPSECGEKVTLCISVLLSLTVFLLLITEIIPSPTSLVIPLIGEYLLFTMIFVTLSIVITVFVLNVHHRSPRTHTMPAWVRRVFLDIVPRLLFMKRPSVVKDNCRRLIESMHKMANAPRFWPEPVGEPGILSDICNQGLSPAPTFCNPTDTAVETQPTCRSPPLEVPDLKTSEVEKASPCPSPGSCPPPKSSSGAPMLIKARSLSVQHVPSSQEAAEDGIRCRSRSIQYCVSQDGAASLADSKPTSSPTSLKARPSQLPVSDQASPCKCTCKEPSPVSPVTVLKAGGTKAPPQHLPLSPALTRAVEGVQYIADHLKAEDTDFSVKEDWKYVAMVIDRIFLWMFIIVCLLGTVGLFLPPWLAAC
Chain of Neuronal acetylcholine receptor; alpha4/beta2 (Rattus norvegicus, UniProt P09483+P12390) (P12390 whole entry): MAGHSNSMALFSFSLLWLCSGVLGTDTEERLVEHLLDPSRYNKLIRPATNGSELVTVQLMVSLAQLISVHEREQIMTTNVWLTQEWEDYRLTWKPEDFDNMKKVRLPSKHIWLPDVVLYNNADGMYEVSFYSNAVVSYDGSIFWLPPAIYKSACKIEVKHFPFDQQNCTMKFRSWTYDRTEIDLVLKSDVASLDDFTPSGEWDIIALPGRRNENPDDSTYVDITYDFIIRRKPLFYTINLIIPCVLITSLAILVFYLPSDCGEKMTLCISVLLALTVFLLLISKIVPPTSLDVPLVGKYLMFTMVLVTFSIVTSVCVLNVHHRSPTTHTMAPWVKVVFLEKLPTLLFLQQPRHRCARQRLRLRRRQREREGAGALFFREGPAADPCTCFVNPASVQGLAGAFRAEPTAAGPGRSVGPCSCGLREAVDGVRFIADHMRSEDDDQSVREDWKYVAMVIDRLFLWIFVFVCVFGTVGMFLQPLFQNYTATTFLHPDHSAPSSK
T2 sequence (P30926 whole entry): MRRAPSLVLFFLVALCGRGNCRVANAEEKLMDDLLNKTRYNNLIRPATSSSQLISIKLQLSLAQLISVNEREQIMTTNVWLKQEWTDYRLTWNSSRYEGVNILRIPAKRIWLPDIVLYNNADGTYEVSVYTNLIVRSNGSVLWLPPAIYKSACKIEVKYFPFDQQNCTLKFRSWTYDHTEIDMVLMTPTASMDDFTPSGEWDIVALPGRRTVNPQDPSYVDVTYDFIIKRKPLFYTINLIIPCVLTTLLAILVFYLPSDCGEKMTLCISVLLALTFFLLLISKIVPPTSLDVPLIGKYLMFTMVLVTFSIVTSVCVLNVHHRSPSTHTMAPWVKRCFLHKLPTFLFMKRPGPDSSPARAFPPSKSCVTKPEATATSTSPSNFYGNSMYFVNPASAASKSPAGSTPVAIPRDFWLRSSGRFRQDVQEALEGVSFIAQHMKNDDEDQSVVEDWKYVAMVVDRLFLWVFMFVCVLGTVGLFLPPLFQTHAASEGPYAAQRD
T2 sequence (P32297 whole entry): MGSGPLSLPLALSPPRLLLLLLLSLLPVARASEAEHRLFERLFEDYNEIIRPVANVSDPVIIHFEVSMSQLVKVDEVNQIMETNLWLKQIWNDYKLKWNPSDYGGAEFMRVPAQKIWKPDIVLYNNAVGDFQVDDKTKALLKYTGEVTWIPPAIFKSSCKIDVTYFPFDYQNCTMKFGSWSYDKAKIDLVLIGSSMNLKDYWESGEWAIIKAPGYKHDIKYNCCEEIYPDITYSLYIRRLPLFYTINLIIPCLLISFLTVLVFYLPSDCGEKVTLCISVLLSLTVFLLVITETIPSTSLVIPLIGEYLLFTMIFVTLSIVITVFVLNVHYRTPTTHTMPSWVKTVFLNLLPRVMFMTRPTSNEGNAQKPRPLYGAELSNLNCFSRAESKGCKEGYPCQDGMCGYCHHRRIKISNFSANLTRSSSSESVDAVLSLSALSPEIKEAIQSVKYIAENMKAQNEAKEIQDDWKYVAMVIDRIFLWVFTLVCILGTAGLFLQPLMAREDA

As for `N#Cc1cncc(N2CC[C@H]3CN[C@H]3C2)c1`, the results for the Activity (in assay [1]; with Rattus norvegicus [2]; in [5]) were 112%, 80% and 127%, respectively. The EC50 came to 1000 nM in assay [3] and 1900 nM in assay [4]. This compound returned a Ki in assay [6] of 0.12 nM.

Regarding `Clc1cc(N2CC[C@@H]3CN[C@@H]3C2)cnc1Cl`, the Activity in assay [1] was 79%; in the assay with Rattus norvegicus [7] it was 55%; in assay [5] it was 111%. Further, the EC50 in assay [3] is 110 nM; in assay [4], 82 nM. In [6], this compound had a Ki of 0.027 nM.

Regarding `Brc1cc(N2CC[C@H]3CN[C@H]3C2)cnc1Br`, the Activity in assay [1] came out at 209%; with Rattus norvegicus [2], 99%; in [5] it was 117%. For the same compound, in the assay with Rattus norvegicus [8], the result was inactive. For the same compound, the EC50 stood at 8.2 nM in assay [3] and 7.8 nM in assay [4]. Besides, the affinity in assay [6] corresponds to a Ki of 0.014 nM.

For the compound `Cc1cc(N2C[C@@H]3CCNC[C@@H]32)cnc1Cl`, the Activity in assay [1] amounted to 103%; in assay [5], 91%. Moreover, the result with Rattus norvegicus [8] was Active. In addition, the EC50 in assay [3] was found to be 1910 nM; in assay [4] it was 76.1 nM. In addition, the outcome with Rattus norvegicus [7] was inactive. Further, the Ki in assay [6] was 0.043 nM.

Turning to `Clc1ccc(N2CC[C@H]3CN[C@H]3C2)cn1`, the Activity in assay [1] was 114%; in assay [5], 151%. In the assay listed under Homo sapiens, the Ratio EC50 was 2. Also, the EC50 in assay [3] worked out at 29 nM; in [4] it was 13 nM. Further, in assay [6], the affinity corresponds to a Ki of 0.019 nM.

Regarding `Brc1cc(N2CC[C@@H]3CN[C@@H]3C2)cnc1Br`, the values for the Activity (in assay [1]; in the assay on Rattus norvegicus [7]; in [5]) were 86%, 26% and 100%, respectively. The values for the concentration for a half-maximal effect (EC50) in assay [3] and in assay [4] were 110 nM and 76 nM, respectively. The compound further came in with a Ki in assay [6] of 0.024 nM.

Take `N#Cc1cncc(N2CC[C@@H]3CN[C@@H]3C2)c1`: the Activity in assay [1] was determined as 76%; in assay [5] it was 116%. In addition, the EC50 in assay [3] is 490 nM; in assay [4], 1900 nM. Moreover, the outcome with Rattus norvegicus [7] was inactive. Also, the Ki in [6] was 0.065 nM.

In the case of `Clc1ccc(N2C[C@@H]3CCNC[C@@H]32)cn1`, the figures for the Activity (in [1]; with Rattus norvegicus [9]; in [5]) were 94%, 50% and 129%, respectively. Further, the EC50 in [3] was 1390 nM; in assay [4], 37.4 nM. Also, the Ki in [6] was found to be 0.12 nM.

For the compound `Cc1cc(N2C[C@H]3CCNC[C@H]32)cnc1Cl`, the Activity in assay [1] stood at 142%; in the assay on Rattus norvegicus [7], 75%; in assay [5], 103%. In addition, the EC50 in assay [3] turned out to be 298 nM; in assay [4], 134 nM. In assay [6], this compound registered a Ki of 0.24 nM.

Take `N#Cc1cc(N2C[C@@H]3CCNC[C@@H]32)cnc1Br`: the Activity in assay [1] was 104%; in [5], 88%. In addition, in the assay on Rattus norvegicus [8], the outcome was Active. Moreover, the figures for the EC50 in [3] and in [4] were 794 nM and 109 nM, respectively. In assay [6], this compound yielded a Ki of 0.07 nM.

Regarding `COc1cncc(N2CC[C@@H]3CN[C@@H]3C2)c1`, the Activity in assay [1] was found to be 35%; in assay [5], 86%. Moreover, the result in the assay filed under Rattus norvegicus [10] was inactive. Besides, the EC50 in assay [3] amounted to 4500 nM; in assay [4] it was 2700 nM. This compound also came in with a Ki in assay [6] of 0.18 nM.

Regarding `COc1cncc(N2CC[C@H]3CN[C@H]3C2)c1`, the Activity was 178% in assay [1], “Dose-dependent effect” in the assay filed under Rattus norvegicus [10] and 103% in assay [5]. The result in the assay with Rattus norvegicus [8] was inactive. In addition, the figures for the EC50 in assay [3] and in assay [4] were 180 nM and 130 nM, respectively. Also, the affinity in assay [6] corresponds to a Ki of 0.038 nM.
